Starred links: 1 amine or outer side, 2 acyl side, 3 side chain; linkers in the order of their positions; H or OH if unused. Positions of bridges follow the written chain, without caps; N, C: chain ends. Non-standard residues stand in square brackets, D forms with d. Residues, ends and D or L forms follow the SMILES beside them. X2 = CC1CCN(C[C@H](N[*:1])C(=O)[*:2])CC1; X3 = NC(=O)CNC[C@H](CSCC(=O)[*:1])N[*:2]; CH2CH2 = C(C[*:2])[*:1]

Experiment [1] concerns the target T1, Kelch-like ECH-associated protein 1 (Homo sapiens, UniProt Q14145). Description: Binding affinity to Keap1 (unknown origin) assessed as dissociation constant by calorimetric analysis.
Experiment [2] concerns the target T1, Kelch-like ECH-associated protein 1. Description: Inhibition of Keap1 (unknown origin) by ELISA analysis. On the technique in general: In an ELISA, binding on a coated surface is turned into a signal by an enzyme label.
Experiment [3] has as its target GTPase KRas (Homo sapiens, UniProt P01116, G12D). Description: Inhibition of human His-Avi-TEV-tagged KRAS G12D mutant expressed in Escherichia coli BL21(DE3) by TR-FRET assay.
Experiment [4] can be described thus: Antiproliferative activity against human LNCaP-95 cells assessed as cell growth inhibition measured after 24 hrs by CellTiter-Glo assay. It is filed as functional, cell-based. The conditions noted are these: LNCaP-95, 24 h.
Experiment [5] in a line: Antiproliferative activity against human LNCaP-abl cells assessed as cell growth inhibition measured after 24 hrs by CellTiter-Glo assay. It is filed as functional, cell-based.
Experiment [6] is described as follows: Binding affinity to Carbonic anhydrase (unknown origin) assessed as dissociation constant by isothermal titration calorimetry. Also noted: species or system Homo sapiens. For orientation: In ITC the heat of successive injections is recorded.
The nature of experiment [7]: Inhibition of NDM-1 (unknown origin). Also noted: species or system Bacteria.
Experiment [8] is described as follows: Inhibition of TEV protease using Cy5-ENLYFQGK(QSY21)-NH2 as substrate incubated for 1 hr by fluorescence based analysis. Also on record: species or system Tobacco etch virus.
Experiment [9] is described as follows: Inhibition of recombinant His-tagged HIF-1 expressed in human U2OS cells measured after 90 mins by ELISA assay. In kind it is cell-based.
Experiment [10] in a line: Inhibition of HIF-1alpha / HIF-1beta (unknown origin) protein-protein interaction by ELISA assay. Also on record: species or system Homo sapiens.
Experiment [11] concerns the target Sonic hedgehog protein (Homo sapiens, UniProt Q15465). Description: Binding affinity to SHH (unknown origin) assessed as dissociation constant by calorimetric analysis.
Experiment [12] is described as follows: Inhibition of FphF (unknown origin) using Cy5-ENLYFQGK(QSY21)-NH2 as substrate incubated for 1 hr by fluorescence based analysis. Also on record: species or system Homo sapiens.

T1 sequence (Q14145 whole entry): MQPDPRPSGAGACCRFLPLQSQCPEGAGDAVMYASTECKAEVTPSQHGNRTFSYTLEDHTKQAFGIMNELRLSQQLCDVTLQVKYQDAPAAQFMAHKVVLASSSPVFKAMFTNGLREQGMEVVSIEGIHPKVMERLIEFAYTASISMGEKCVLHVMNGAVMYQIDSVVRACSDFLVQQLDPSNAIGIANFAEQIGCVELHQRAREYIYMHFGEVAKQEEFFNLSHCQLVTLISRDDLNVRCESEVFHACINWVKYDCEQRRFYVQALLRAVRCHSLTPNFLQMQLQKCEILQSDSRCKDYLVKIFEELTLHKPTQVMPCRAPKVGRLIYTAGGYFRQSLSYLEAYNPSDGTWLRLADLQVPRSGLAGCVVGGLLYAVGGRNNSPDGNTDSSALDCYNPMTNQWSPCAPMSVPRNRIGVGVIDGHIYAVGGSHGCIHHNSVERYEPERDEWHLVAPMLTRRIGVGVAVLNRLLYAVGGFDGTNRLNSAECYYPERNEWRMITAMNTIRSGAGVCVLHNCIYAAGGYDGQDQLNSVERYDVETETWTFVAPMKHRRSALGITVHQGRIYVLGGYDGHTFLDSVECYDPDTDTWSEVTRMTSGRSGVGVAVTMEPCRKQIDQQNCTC
Chain of GTPase KRas (P01116 whole entry G12D): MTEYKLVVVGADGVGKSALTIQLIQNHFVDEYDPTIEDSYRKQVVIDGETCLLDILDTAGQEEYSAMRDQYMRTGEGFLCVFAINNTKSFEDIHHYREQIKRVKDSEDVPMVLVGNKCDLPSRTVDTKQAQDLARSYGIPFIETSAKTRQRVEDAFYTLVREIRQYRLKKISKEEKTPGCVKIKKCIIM
Chain of Sonic hedgehog protein (Q15465 24-197 limits assumed): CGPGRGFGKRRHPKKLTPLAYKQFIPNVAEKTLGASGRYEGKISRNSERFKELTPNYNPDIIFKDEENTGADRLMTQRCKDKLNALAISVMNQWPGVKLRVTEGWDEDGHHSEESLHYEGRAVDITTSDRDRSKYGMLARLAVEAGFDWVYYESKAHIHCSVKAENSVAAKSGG

By Kd is commonly meant the free concentration of one partner at which half of the binding sites on the other are occupied at equilibrium, for simple one-to-one binding. What is called IC50 is the concentration that gives 50% inhibition. In the case of `C[C@@H](O)[C@@H]1NC(=O)[C@H](CCC(=O)O)NC(=O)[C@H](CO)NC(=O)[C@H](CC(=O)O)NC(=O)[C@@H](N)Cc2ccc(cc2)OCCSC[C@@H](C(=O)O)NC(=O)[C@H](CCC(=O)O)NC(=O)CNC1=O` (H-YDSETGEC-OH; linker 1-8 via CH2CH2), the Kd in experiment [1] was determined as 110 nM. The same molecule had an IC50 in experiment [2] of 2.8 nM. In [3], `CC1CCN(C[C@@H]2NC(=O)[C@H](CCCNC(=N)N)NC(=O)[C@H](Cc3ccccc3)NC(=O)[C@H](CC(N)=O)NC(=O)[C@H](CCCNC(=N)N)NC(=O)[C@H](Cc3ccccc3)NC(=O)[C@H](CC(N)=O)NC(=O)[C@H](C(C)C)NC(=O)[C@H](Cc3ccccc3)NC(=O)[C@H](Cc3ccc(O)cc3)NC(=O)CSC[C@@H](CNCC(N)=O)NC(=O)[C@H](CCCNC(=N)N)NC(=O)[C@H](Cc3ccccc3)NC2=O)CC1` (YFVNFRNFR[X2]FR; linker N-C via X3) returned an IC50 of 800 nM.

Regarding `COc1ccc([C@H](C)N(CC(=O)N(CCCOC(C)C)CC(=O)N(CC(=O)N(CCc2ccccc2Oc2ccccc2)CC(=O)O)c2cc(OC)cc(OC)c2)C(=O)CN(C(=O)[C@@H](C)N)[C@@H](C)c2ccc(OC)cc2)cc1`, the IC50 in [4] is greater than 20000 nM; in experiment [5] it was 7100 nM. In the case of `NNc1ccc(S(N)(=O)=O)cc1`, in [6], the Kd amounted to 50000 nM. `C[C@@H](CS)C(=O)N1CCC[C@@H]1C(=O)O` yielded an IC50 in [7] of 59700 nM.

In turn, `CSCC[C@@H]1NC(=O)[C@H](Cc2ccc(O)cc2)NC(=O)[C@@H](NC(=O)[C@H](C)N)CSC/C(=N\OCC(=O)NC/C=C/S(C)(=O)=O)CSC[C@@H](C(=O)NCC(=O)O)NC(=O)[C@H](CC(C)C)NC(=O)[C@H](Cc2ccc(O)cc2)NC(=O)[C@H](CC(C)C)NC(=O)[C@@H]2CCCN2C(=O)[C@H](CCC(=O)O)NC(=O)[C@H](CCC(N)=O)NC1=O` had an IC50 in experiment [8] of 730 nM. As to `COc1ccc([C@H](C)N2CC(=O)N(CCCOC(C)C)CC(=O)N(c3cc(OC)cc(OC)c3)CC(=O)N(CCc3ccccc3Oc3ccccc3)CC(=O)N[C@H](C)C(=O)N([C@@H](C)c3ccc(OC)cc3)CC2=O)cc1`, the IC50 amounted to 782 nM in experiment [4] and 195 nM in [5]. As for `CC(C)C[C@@H]1NC(=O)[C@H](CS)NC(=O)[C@H](Cc2ccc(O)cc2)NC(=O)[C@H](C(C)C)NC(=O)[C@H](Cc2ccccc2)NC(=O)[C@H](CC(C)C)NC1=O`, the IC50 turned out to be 19000 nM in experiment [9] and 1300 nM in experiment [10]. `CC[C@H](C)[C@@H]1NC(=O)[C@@H]2CCCN2C(=O)[C@H](CC(=O)O)NC(=O)[C@H](CCCNC(=N)N)NC(=O)[C@H](CCCNC(=N)N)NC(=O)[C@H](CC(C)C)NC(=O)[C@H](CS)NC(=O)[C@@H]2CCCN2C1=O` (cyclo(CLRRDPIP)): in [7], the IC50 was 1200 nM.

For `CSCC[C@@H]1NC(=O)[C@H](C)NC(=O)[C@H](CCC(=O)O)NC(=O)[C@@H](NC(=O)[C@@H]2CCCN2C(=O)[C@H](CO)NC(=O)[C@H](CO)NC(=O)CN)Cc2ccc(cc2)OCCSC[C@@H](C(=O)N[C@H](C(=O)N[C@@H](CC(=O)O)C(=O)N[C@H](C(=O)NCC(=O)O)[C@@H](C)O)[C@@H](C)O)NC(=O)[C@H](CCSC)NC(=O)[C@H](CC(=O)O)NC1=O` (H-GSSPYEAMDMCTDTG-OH; linker 5-11 via CH2CH2), the Kd in experiment [11] worked out at 550 nM. The molecule `CSCC[C@@H]1NC(=O)[C@H](Cc2c[nH]c3ccccc23)NC(=O)[C@H](CCCNC(=N)N)NC(=O)[C@H](Cc2c[nH]c3ccccc23)NC(=O)[C@H](CCCNC(=N)N)NC(=O)[C@H](C)NC(=O)[C@@H](NC(=O)[C@@H](N)C(C)C)CSC/C(=N/OCC(=O)CP(=O)(Oc2ccccc2)Oc2ccccc2)CSC[C@@H](C(=O)NCC(=O)O)NC(=O)[C@@H]2CCCN2C1=O` displayed an IC50 in experiment [12] of 647 nM.

These data come from ChEMBL document CHEMBL5108037, “Cyclic Peptide Screening Methods for Preclinical Drug Discovery” (J Med Chem, 2022).
